Measured values as given in PubChem BioAssay AID330 (DTP/NCI, 2004).
Several values for one entry are separate records, joined by “and”; a condition that tells them apart may be missing. Equal values may be shown once. Inconclusive results and toxic doses are left out. Peptide text beside a SMILES is read from it. * marks the point of attachment. Boc = CC(C)(C)OC(=O)*; NHNH2 = NN*

Test system: P388 leukemia ip, CD2F1 mice, survival T/C
Assay: NCI In Vivo Anticancer Drug Screen. Data for tumor model P388 Leukemia (intraperitoneal) in CD2F1 (CDF1) mice
Settings: endpoint: median survival time, higher = longer survival
In short: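 Mice carrying the transplanted tumor received test compound or vehicle. Survival was recorded in each group, and the value is the treated-group measurement divided by that of the vehicle-treated control group.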

[1] = dose: 100.0 mg/kg/injection, schedule: Q04DX002 (ip), vehicle: saline with Tween-80
[2] = dose: 60.0 mg/kg/injection, schedule: Q01DX005 (ip), vehicle: saline
[3] = dose: 120.0 mg/kg/injection, schedule: Q01DX005 (ip), vehicle: saline
[4] = dose: 240.0 mg/kg/injection, schedule: Q01DX005 (ip), vehicle: saline
[5] = dose: 50.0 mg/kg/injection, schedule: Q01DX009 (ip), vehicle: Klucel (hydroxypropylcellulose) (HPC)
[6] = dose: 100.0 mg/kg/injection, schedule: Q01DX009 (ip), vehicle: Klucel (hydroxypropylcellulose) (HPC)
[7] = dose: 200.0 mg/kg/injection, schedule: Q01DX009 (ip), vehicle: Klucel (hydroxypropylcellulose) (HPC)
[8] = dose: 50.0 mg/kg/injection, schedule: Q01DX005 (ip), vehicle: saline with Tween-80
[9] = dose: 100.0 mg/kg/injection, schedule: Q01DX005 (ip), vehicle: saline with Tween-80
[10] = dose: 200.0 mg/kg/injection, schedule: Q01DX005 (ip), vehicle: saline with Tween-80
[11] = dose: 50.0 mg/kg/injection, schedule: Q01DX009 (ip), vehicle: saline with Tween-80
[12] = dose: 100.0 mg/kg/injection, schedule: Q01DX009 (ip), vehicle: saline with Tween-80
[13] = dose: 200.0 mg/kg/injection, schedule: Q01DX009 (ip), vehicle: saline with Tween-80
[14] = dose: 50.0 mg/kg/injection, schedule: Q01DX005 (ip), vehicle: Klucel (hydroxypropylcellulose) (HPC)
[15] = dose: 100.0 mg/kg/injection, schedule: Q01DX005 (ip), vehicle: Klucel (hydroxypropylcellulose) (HPC)
[16] = dose: 200.0 mg/kg/injection, schedule: Q01DX005 (ip), vehicle: Klucel (hydroxypropylcellulose) (HPC)
[17] = dose: 15.0 mg/kg/injection, schedule: Q01DX005 (ip), vehicle: saline with Tween-80
[18] = dose: 30.0 mg/kg/injection, schedule: Q01DX005 (ip), vehicle: saline with Tween-80
[19] = dose: 60.0 mg/kg/injection, schedule: Q01DX005 (ip), vehicle: saline with Tween-80
[20] = dose: 200.0 mg/kg/injection, schedule: Q01DX009 (ip), vehicle: saline
[21] = dose: 120.0 mg/kg/injection, schedule: Q01DX005 (ip), vehicle: saline with Tween-80
[22] = dose: 240.0 mg/kg/injection, schedule: Q01DX005 (ip), vehicle: saline with Tween-80

COc1ccc(C2ON=C(c3cc(C)cc(Br)c3O)C2[N+](=O)[O-])cc1 (centres undefined)
T/C [1]: 90 % of control | T/C (dose: 200.0 mg/kg/injection, schedule: Q04DX002 (ip), vehicle: saline with Tween-80): 94 % of control | T/C (dose: 400.0 mg/kg/injection, schedule: Q04DX002 (ip), vehicle: saline with Tween-80): 94 % of control

CC1OC(Sc2ncc[nH]2)C(O)C(O)C1O (centres undefined)
T/C [2]: 95 % of control | T/C [3]: 94 % of control | T/C [4]: 100 % of control

CC(C)(C)OC(=O)NC(Cc1c[nH]c2ccccc12)C(=O)NC(Cc1ccccc1)C(=O)NN (stereo not drawn) (Boc-Trp-Phe-NHNH2; configuration not given here)
T/C [5]: 92 % of control | T/C [6]: 88 % of control | T/C [7]: 91 % of control

O=C(Nc1ccc(C2=NCCN2)cc1)c1cc2ccc(C3=NCCN3)cc2[nH]1
T/C (dose: 12.5 mg/kg/injection, schedule: Q04DX003 (ip), vehicle: saline): 101 % of control | T/C (dose: 25.0 mg/kg/injection, schedule: Q04DX003 (ip), vehicle: saline): 112 % of control | T/C (dose: 50.0 mg/kg/injection, schedule: Q04DX003 (ip), vehicle: saline): 118 % of control

O=C(O)CSCc1nc2ccccc2[nH]1
T/C (dose: 100.0 mg/kg/injection, schedule: Q01DX001 (ip), vehicle: saline with Tween-80): 95 % of control | T/C (dose: 200.0 mg/kg/injection, schedule: Q01DX001 (ip), vehicle: saline with Tween-80): 90 % of control | T/C (dose: 400.0 mg/kg/injection, schedule: Q01DX001 (ip), vehicle: saline with Tween-80): 100 % of control

COc1ccc(C(OC)c2cc(C(C)(C)C)c(O)c(C(C)(C)C)c2)cc1 (centres undefined)
T/C [8]: 102 % of control | T/C [9]: 109 % of control | T/C [10]: 112 % of control

OC1c2ccccc2OC2(N3CCCC3)CCCCC12 (centres undefined)
T/C [11]: 98 % of control | T/C [12]: 94 % of control | T/C [13]: 91 % of control

C=CCN1C(SC)=NC(=O)C1(c1ccccc1)c1ccccc1
T/C [14]: 100 % of control | T/C [15]: 104 % of control | T/C [16]: 102 % of control

CC1C2=C(CN(C)CC2)c2ccccc21 (centres undefined)
T/C (dose: 12.5 mg/kg/injection, schedule: Q01DX005 (ip), vehicle: saline with Tween-80): 100 % of control | T/C (dose: 25.0 mg/kg/injection, schedule: Q01DX005 (ip), vehicle: saline with Tween-80): 96 % of control | T/C [8]: 105 % of control

CCCCCCCCSC(=O)n1cc(F)c(=O)[nH]c1=O
T/C [17]: 103 % of control | T/C [18]: 120 % of control | T/C [19]: 120 % of control

CN1C(=O)CN(CN2CCOCC2)C1=O
T/C [14]: 106 % of control | T/C [15]: 115 % of control | T/C [16]: 117 % of control

COC(=O)C1=C(C(=O)OC)C2C=CC1C1C(OC(C)=O)C(OC(C)=O)C21 (centres undefined)
T/C [5]: 100 % of control | T/C [6]: 100 % of control | T/C [7]: 107 % of control

COc1ccc(CNCCCSC)cc1
T/C (dose: 50.0 mg/kg/injection, schedule: Q01DX005 (ip), vehicle: saline): 105 % of control | T/C (dose: 100.0 mg/kg/injection, schedule: Q01DX005 (ip), vehicle: saline): 110 % of control

NC(CC(=O)O)C(=O)O (centres undefined)
T/C [5]: 103 % of control and 105 % of control | T/C [6]: 105 % of control and 91 % of control | T/C [7]: 91 % of control | T/C [20]: 100 % of control | T/C (dose: 400.0 mg/kg/injection, schedule: Q01DX009 (ip), vehicle: saline): 100 % of control | T/C (dose: 800.0 mg/kg/injection, schedule: Q01DX009 (ip), vehicle: saline): 90 % of control

CN1CCN=C1c1ccc(NC(=O)c2ccc(C(=O)Nc3ccc(C4=NCCN4C)cc3)cc2)cc1
T/C (dose: 0.4 mg/kg/injection, schedule: Q01DX009 (ip), vehicle: saline with Tween-80): 108 % of control | T/C (dose: 3.0 mg/kg/injection, schedule: Q01DX009 (ip), vehicle: saline with Tween-80): 150 % of control | T/C (dose: 4.0 mg/kg/injection, schedule: Q01DX009 (ip), vehicle: saline): 166 % of control | T/C (dose: 6.0 mg/kg/injection, schedule: Q01DX009 (ip), vehicle: saline with Tween-80): 204 % of control | T/C (dose: 6.0 mg/kg/injection, schedule: Q01DX009 (ip), vehicle: saline): 187 % of control | T/C (dose: 6.25 mg/kg/injection, schedule: Q04DX003 (ip), vehicle: saline with Tween-80): 118 % of control | T/C (dose: 9.0 mg/kg/injection, schedule: Q01DX009 (ip), vehicle: saline): 191 % of control

CC(C)(C)c1cc(C(c2cc3c(cc2O)OCO3)N2CCOCC2)cc(C(C)(C)C)c1O (centres undefined)
T/C [19]: 102 % of control and 111 % of control and 112 % of control | T/C [21]: 105 % of control and 111 % of control and 115 % of control | T/C [22]: 104 % of control | T/C (dose: 480.0 mg/kg/injection, schedule: Q01DX005 (ip), vehicle: saline with Tween-80): 123 % of control

O=C1OC(=O)N2CSCC12 (centres undefined)
T/C [14]: 101 % of control | T/C [15]: 96 % of control | T/C [16]: 92 % of control

NCCSCCN
T/C (dose: 50.0 mg/kg/injection, schedule: Q01DX009 (ip), vehicle: saline): 100 % of control | T/C (dose: 100.0 mg/kg/injection, schedule: Q01DX009 (ip), vehicle: saline): 99 % of control | T/C (dose: 100.0 mg/kg/injection, schedule: Q03DX003 (ip), vehicle: saline): 102 % of control | T/C [20]: 105 % of control | T/C (dose: 200.0 mg/kg/injection, schedule: Q03DX003 (ip), vehicle: saline): 105 % of control | T/C (dose: 400.0 mg/kg/injection, schedule: Q03DX003 (ip), vehicle: saline): 92 % of control

C=CC(C)(CCC=C(C)C)ON(C)C (centres undefined)
T/C [1]: 100 % of control

CC(=O)Nc1ccc2nc(/C=C/c3ccc(N(C)C)cc3)c(=O)oc2c1
T/C [19]: 102 % of control | T/C [21]: 96 % of control | T/C [22]: 91 % of control

NNc1nncc2c1[nH]c1ccccc12
T/C (dose: 1.56 mg/kg/injection, schedule: Q01DX001 (ip), vehicle: saline with Tween-80): 102 % of control | T/C (dose: 3.12 mg/kg/injection, schedule: Q01DX001 (ip), vehicle: saline with Tween-80): 102 % of control | T/C (dose: 6.25 mg/kg/injection, schedule: Q01DX001 (ip), vehicle: saline with Tween-80): 105 % of control | T/C (dose: 12.5 mg/kg/injection, schedule: Q01DX001 (ip), vehicle: saline with Tween-80): 103 % of control

CCn1c2ccccc2c2cc(N/C=C/C3=[N+](C)c4ccccc4C3(C)C)ccc21
T/C (dose: 1.56 mg/kg/injection, schedule: Q01DX009 (ip), vehicle: Klucel (hydroxypropylcellulose) (HPC)): 107 % of control and 111 % of control | T/C (dose: 3.12 mg/kg/injection, schedule: Q01DX009 (ip), vehicle: Klucel (hydroxypropylcellulose) (HPC)): 100 % of control and 114 % of control | T/C (dose: 6.25 mg/kg/injection, schedule: Q01DX009 (ip), vehicle: Klucel (hydroxypropylcellulose) (HPC)): 116 % of control (2×) and 123 % of control | T/C (dose: 12.5 mg/kg/injection, schedule: Q01DX009 (ip), vehicle: Klucel (hydroxypropylcellulose) (HPC)): 109 % of control | T/C (dose: 25.0 mg/kg/injection, schedule: Q01DX009 (ip), vehicle: Klucel (hydroxypropylcellulose) (HPC)): 96 % of control

COC(CCC1CO1)OC (centres undefined)
T/C [11]: 100 % of control | T/C [12]: 96 % of control | T/C [13]: 99 % of control

FC(F)(F)c1ccccc1NC(=S)SCc1ccco1
T/C (dose: 50.0 mg/kg/injection, schedule: Q01DX009 (ip), vehicle: suspension in saline): 93 % of control | T/C (dose: 100.0 mg/kg/injection, schedule: Q01DX009 (ip), vehicle: suspension in saline): 93 % of control

CCOC(=O)c1ccc(NC(=O)Nc2nncs2)cc1
T/C (dose: 6.25 mg/kg/injection, schedule: Q01DX009 (ip), vehicle: distilled water + Tween-80): 114 % of control | T/C (dose: 12.5 mg/kg/injection, schedule: Q01DX009 (ip), vehicle: distilled water + Tween-80): 119 % of control

CCN(CC)C(=O)NCCCCCCNC(=O)N(CC)CC
T/C [17]: 103 % of control | T/C [18]: 98 % of control and 104 % of control | T/C [19]: 98 % of control and 100 % of control and 94 % of control | T/C [21]: 87 % of control

CN(C)CCCN1C[C@H]2CC[C@@](C)(C1)C2(C)C
T/C [8]: 105 % of control | T/C [9]: 107 % of control | T/C [10]: 105 % of control

O=c1cc(N2CCOCC2)n2ccccc2n1
T/C [2]: 96 % of control | T/C [3]: 102 % of control | T/C [4]: 96 % of control
